Assays:
cell viability = test: Cell viability after single-agent treatment; format: cell-based
HCT116 xenograft tumors = test: HCT116 xenograft tumor model; format: in vivo; details: nude mice, 200 mg/kg nelfinavir and/or 200 mg/kg milademetan
Protocol: Athymic nude mice (NU/NU) weighting 20 to 30 grams and being 8-12 weeks of age (Charles River Labs) were housed in cages under standard conditions (22° C., 50% relative humidity, 12-h light/dark cycles) and provided with food and water ad libitum. Next, […] exponentially growing HCT116 cells resuspended in 100 μl Matrigel/PBS (5 mg/ml final) were injected subcutaneously into both flanks. Tumors grew for 10-14 days before treatment initiation. Experimental animals were given 200 mg/kg nelfinavir and/or 200 mg/kg Milademetan (Rain Therapeutics) by oral gavage once daily, 5 days a week. Tested compounds were prepared in a mixture of 2% Klucel (hydroxypropyl cellulose), 0.5% Tween 80, and 35% ethanol. Tumor volumes (v) were estimated daily, 5 days a week using caliper measurements and formula v=(I×w^2)/2, where I represents the greatest length of the tumor and w is tumor width in the perpendicular axis. Average volumes of the right and left flank tumors were used for plotting and calculations. Equal ratios of male and female mice were used in treatment groups (5 males and 5 females). All in vivo experiments were approved by the Institutional Animal Care and Use Committee at the CU-AMC (IACUC protocol 00432).
After indicated treatments, cells were washed with PBS, total RNA was extracted using Trizol substitute (38% Phenol, saturated, pH 4.3, 0.8 M guanidine thiocyanate, 0.4 M ammonium thiocyanate, 0.1 M sodium acetate, pH 5.0, 5% glycerol), and converted to cDNA with High-Capacity cDNA Reverse Transcription Kit (Thermo Fisher). Next, diluted cDNA was used in quantitative PCR reaction using SYBR Select Master Mix for CFX (Thermo Fisher). Detected mRNA levels were normalized to 18s rRNA values.
Tumors fixed in 4% formaldehyde were transferred to 70% ethanol and embedded in paraffin at the Pathology Shared Resource-Research Histology, University of Colorado Anschutz Medical Campus. Three tumors from each experimental group were sectioned, stained with DAPI and Ki67 primary antibody using Akoya Opal technology (Akoya Biosciences), and scanned at six representative regions with Vectra 3.0 (Akoya Biosciences) at the Human Immune Monitoring Shared Resource (University of Colorado Anschutz). Next, InForm image analysis software (Akoya Biosciences) was used for automated identification of nuclei based on the DAPI signal. Ki67 nuclear fluorescence was outputted for all nuclei.

SMILES	effects on cell viability when administered alone (cell viability)	animal survival (Kaplan Meier; humane endpoint tumor size>1000 mm^3) (HCT116 xenograft tumors; oral gavage)	tumor growth (HCT116 xenograft tumors; oral gavage once daily, 5 days a week)
COc1ncc(-c2nc3c(n2C(C)C)[C@H](c2ccc(Cl)cc2)N(c2cc(Cl)cn(C)c2=O)C3=O)c(OC)n1 [siremadlin/HDM201, siremadlin]	limited effects on cell viability		
COc1cc(C(=O)O)ccc1NC(=O)[C@@H]1N[C@@H](CC(C)(C)C)[C@](C#N)(c2ccc(Cl)cc2F)[C@H]1c1cccc(Cl)c1F [idasanutlin]	limited effects on cell viability		
CC1(C)CCC2(CC1)N[C@@H](C(=O)N[C@@H]1CC[C@@H](C(N)=O)OC1)[C@H](c1ccnc(Cl)c1F)[C@]21C(=O)Nc2cc(Cl)ccc21 [milademetan]	limited effects on cell viability	had to be sacrificed at the humane endpoint	Tumors continued to grow

Source: patent US20250127777A1, “DUAL INHIBITION OF MDM2 AND EIF2-ALPHA INDUCES CELL DEATH IN MULTIPLE CANCER CELL TYPES” (The Regents of the University of Colorado, A Body Corporate, priority 2022, published 2025)
